Each structure is given as a SMILES string. Read-outs that look alike come from different tables or passages of the source.

Assay [1] deals with DOPA accumulation in the striatum (DA synthesis rate). In words: DOPA accumulation in striatum of reserpine-pretreated rats. It is filed as in vivo, rat. The following applies: for ED50: Rattus norvegicus, sc, 0.5 h, read-out: DOPA ED50 Stri. The method, then: (§1) Effects on DOPA and 5-HTP accumulation in reserpine -
(§2) The animals were pretreated with reserpine (5 mg/kg, s.c.) 18 hours before the experiment. Test drugs were administered and immediately thereafter the motron activity was measured in photocell motility boxes. The rats were injected with the decarboxylase inhibitor NSD 1015 (100 mg/kg, s.c.) and killed 30 minutes later. The accumulation of DOPA in the striatum, limbic and […] and that of 5-HTP in the limbic forebrain was taken as a measure of the DA and 5-HT synthesis rates, respectively. The accumulation of DOPA in the cortex area was taken as a measure of NA synthesis rate. […] The same theory is valid for 5-HT receptor agonists and antagonists. Dose-response curves were constructed for each compound (4-5 dose levels, n=4) and the half-maximal decrease (ED50) was calculated.
(§3) P=partial decrease; maximal decrease was not reached at the highest dose (shown in brackets). The % decrease from control is also shown. NT=not tested. [drawing 4]

In assay [2] the test system is DOPA accumulation in the cortex (NA synthesis rate). In words: DOPA accumulation in cortex of reserpine-pretreated rats. It is filed as in vivo, rat. The following applies: for DOPA ED50 Cortex. (I/P symbol): s.c., number in brackets = highest dose, μmol/kg; for ED50: Rattus norvegicus, sc, 0.5 h, read-out: DOPA ED50 Cortex. (I/P symbol). As to the method:
as §1, §2, §3

In assay [3] the test system is 5-HTP accumulation in the limbic forebrain (5-HT synthesis rate). Put plainly: 5-HTP accumulation in limbic forebrain of reserpine-pretreated rats. It is filed as in vivo, rat. The method, then:
as §1, §2, §3

Assay [4] deals with T1, dopamine D2 receptor (D2CHO cells) (Homo sapiens, UniProt P14416).
T1 construct: expressed in transfected cells; host or cells: CHO cells (D2CHO)
Put plainly: binding experiments using D2CHO cells and Raclopride as the labeled ligand. The text has this:
*Data from binding experiments using D2CHO cells and Raclopride as the […]

Assay [5] has as its target T2, serotonin 5-HT1A receptor (Rattus norvegicus, UniProt P19327).
T2 construct: from tissue
T2 sequence (P19327 1-422): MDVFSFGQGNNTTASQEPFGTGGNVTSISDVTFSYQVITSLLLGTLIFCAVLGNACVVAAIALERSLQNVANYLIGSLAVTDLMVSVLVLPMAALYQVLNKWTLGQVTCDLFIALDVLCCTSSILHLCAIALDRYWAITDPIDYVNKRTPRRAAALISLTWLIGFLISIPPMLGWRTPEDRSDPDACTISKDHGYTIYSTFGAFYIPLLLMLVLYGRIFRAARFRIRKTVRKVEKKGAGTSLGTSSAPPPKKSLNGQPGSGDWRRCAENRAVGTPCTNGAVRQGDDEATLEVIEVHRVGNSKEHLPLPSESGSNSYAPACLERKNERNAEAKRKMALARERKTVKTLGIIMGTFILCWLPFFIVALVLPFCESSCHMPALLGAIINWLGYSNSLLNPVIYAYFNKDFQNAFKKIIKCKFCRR
Put plainly: in vitro affinity for brain serotonin 5-HT1A receptor sites, 8-OH-DPAT. The following applies: non-pretreated, read-out: In vitro binding Ki 5HT1A. The text has this:
(§4) pretreated rats. Also shown are the in vitro affinities for brain
(§5) dopamine (D2, Spiperone) and serotonin (5-HT1A, 8-OH-DPAT)
(§6) receptor sites in non-pretreated rats.

The next assay deals with T3, dopamine D2 receptor (Rattus norvegicus, UniProt P61169).
T3 construct: from tissue
Put plainly: in vitro affinity for brain dopamine D2 receptor sites, Spiperone. The following applies: non-pretreated. It is filed as binding.
Description: as §4, §5, §6

Where [6] appears, read: D2CHO cells, Raclopride as labeled ligand, read-out: In vitro binding Ki D2 (marked *).
The mark [7] stands for this setting: Rattus norvegicus, sc, 0.5 h, read-out: 5-HTP ED50 Limbic (I/P symbol).
Setting [8] is: read-out: In vitro binding Ki D2-spip.

T1 sequence (P14416 whole entry): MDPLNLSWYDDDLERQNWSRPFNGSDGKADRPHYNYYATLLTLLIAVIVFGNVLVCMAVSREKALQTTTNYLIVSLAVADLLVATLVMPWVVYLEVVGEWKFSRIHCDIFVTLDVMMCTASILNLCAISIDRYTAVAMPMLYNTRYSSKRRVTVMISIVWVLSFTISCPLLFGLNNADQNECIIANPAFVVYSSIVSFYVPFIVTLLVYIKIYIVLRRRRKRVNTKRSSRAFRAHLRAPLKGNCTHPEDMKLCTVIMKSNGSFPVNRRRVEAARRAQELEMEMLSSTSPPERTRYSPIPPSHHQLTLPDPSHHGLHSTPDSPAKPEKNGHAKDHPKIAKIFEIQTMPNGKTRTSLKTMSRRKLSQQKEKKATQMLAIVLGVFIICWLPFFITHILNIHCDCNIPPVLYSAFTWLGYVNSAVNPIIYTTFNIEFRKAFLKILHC
T3 sequence (P61169 whole entry): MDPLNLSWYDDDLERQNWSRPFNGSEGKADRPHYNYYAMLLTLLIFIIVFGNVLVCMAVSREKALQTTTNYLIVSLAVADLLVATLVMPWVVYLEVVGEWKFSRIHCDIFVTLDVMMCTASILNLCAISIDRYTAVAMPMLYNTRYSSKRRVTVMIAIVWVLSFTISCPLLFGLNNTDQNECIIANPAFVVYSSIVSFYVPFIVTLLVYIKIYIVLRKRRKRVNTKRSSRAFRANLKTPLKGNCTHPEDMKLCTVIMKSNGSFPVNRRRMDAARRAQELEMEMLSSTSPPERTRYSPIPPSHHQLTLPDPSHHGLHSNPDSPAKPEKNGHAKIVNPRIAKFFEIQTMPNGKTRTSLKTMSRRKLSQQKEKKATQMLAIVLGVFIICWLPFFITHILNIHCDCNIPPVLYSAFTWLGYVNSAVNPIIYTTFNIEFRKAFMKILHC

Take `CCCN(CCC)[C@H]1CCc2c(ccc3[nH]ccc23)[C@H]1C` (relative stereo) [Example 15, cis-(6-Methyl-6,7,8,9-tetrahydro-3H-benzo[e]-indol-7-yl)-dipropylamine]: the “DOPA Stri. % decrease from control” value in assay [1] (highest dose 50 μmol/kg s.c.) was found to be 35%. Moreover, the “DOPA Cortex. % decrease from control” value in assay [2] (highest dose 50 μmol/kg s.c.) was 88%. Further, the “5-HTP Limbic % decrease from control” value in assay [3] (highest dose 50 μmol/kg s.c.) stood at 52%. In addition, the Ki in assay [4] (setting [6]) turned out to be 164 nM; in assay [5], 124 nM.

For the molecule `CCCN(CCC)[C@H]1CCc2c(ccc3[nH]cc(C=O)c23)[C@H]1C` (relative stereo) [Example 16, cis-7-Dipropylamino-6-methyl-6,7,8,9-tetrahydro-3H-benzo[e]-indole-1-carbaldehyde], the “DOPA Stri. % decrease from control” value in assay [1] (highest dose 50 μmol/kg s.c.) came to 36%. Also, the “DOPA ED50 Cortex. (I/P symbol)” value in assay [2] is “I(50)”. Also, the ED50 in assay [3] (setting [7]) worked out at 50 µmol/kg. Further, the Ki in assay [4] (setting [6]) worked out at 924 nM.

Consider `CCCN(CCC)C1CCc2c(ccc3[nH]ccc23)C1` (single isomer, unassigned; (+)) [7A(+), (+)-Dipropyl-(6,7,8,9-tetrahydro-benzo[e]indol-7-yl)-amine, reference compound], for which the ED50 in assay [1] was 0.12 µmol/kg. Moreover, in assay [2] (highest dose 12.5 μmol/kg s.c.), the “DOPA Cortex. % decrease from control” value was determined as 67%. In addition, the Ki at dopamine D2 receptor (In vitro binding Ki D2-spip.) amounted to 35 nM. Moreover, in assay [3] (highest dose 12.5 μmol/kg s.c.), the “5-HTP Limbic % decrease from control” value came out at 80%.

Turning to `CCCN(CCC)C1CCc2c(ccc3[nH]cc(C=O)c23)C1` (single isomer, unassigned; (+)) [8(+), (+)-7-Dipropylamino-6,7,8,9-tetrahydro-3H-benzo[e]indole-1-carbaldehyde], the “DOPA Stri. % decrease from control” value in assay [1] (highest dose 0.2 μmol/kg s.c.) came to 60%. Further, the ED50 in assay [2] and in assay [3] (setting [7]) was 0.2 µmol/kg in each case.

As for `CCCN(CCC)C1CCc2c(ccc3[nH]ccc23)C1` (single isomer, unassigned; (-)) [7A(-), (-)-Dipropyl-(6,7,8,9-tetrahydro-benzo[e]indol-7-yl)-amine, reference compound], the “DOPA Stri. % decrease from control” value in assay [1] (highest dose 25 μmol/kg s.c.) is listed as 31%. In addition, in assay [2] (highest dose 25 μmol/kg s.c.), the “DOPA Cortex. % decrease from control” value was found to be 73%. The Ki on dopamine D2 receptor (setting [8]) came to 257 nM; in assay [5] it was 1450 nM. In addition, the “5-HTP Limbic % decrease from control” value in assay [3] (highest dose 25 μmol/kg s.c.) is recorded as 68%.

For the molecule `CCCN(CCC)C1CCc2c(ccc3c2NC(=O)C3=O)C1` (stereo not drawn) [Example 1, 7-Di-n-propylamino-6,7,8,9-tetrahydro-1H-benzo[g]indole-2,3-dione], in assay [1] (highest dose 50 μmol/kg s.c.), the “DOPA Stri. % decrease from control” value was 78%. Besides, the highest dose tested (ED50 not reached) in assay [3] (Rattus norvegicus, sc, 0.5 h, s.c., number in brackets = highest dose, μmol/kg, read-out: 5-HTP ED50 Limbic (I/P symbol)) stood at 50 µmol/kg. The Ki was 3520 nM in assay [4] (setting [6]) and 9930 nM in assay [5].

With `CCCN(CCC)C1CCc2c(ccc3cc[nH]c23)C1` (stereo not drawn) [Example 2, Di-n-propyl-(6,7,8,9-tetrahydro-1H-benzo[g]indol-7yl)amine], the “DOPA Stri. % decrease from control” value in assay [1] (highest dose 50 μmol/kg s.c.) is reported as 48%. The values for the Ki (at dopamine D2 receptor (setting [8]); in assay [5]) were 320 nM and 1120 nM, respectively. For the same molecule, the “5-HTP Limbic % decrease from control” value in assay [3] (highest dose 50 μmol/kg s.c.) is listed as 61%.

As for `CCCN(CCC)C1CCc2c(ccc3c2NC(=O)C3)C1` (stereo not drawn) [Example 4, 7-Di-n-propylamino-1,3,6,7,8,9-hexahydro-1H-benzo[g]indole-2-one], the Ki on dopamine D2 receptor (setting [8]) came out at 15900 nM; in assay [5], 25300 nM. Moreover, the ED50 in assay [3] (Rattus norvegicus, sc, 0.5 h, s.c., half-maximal decrease, reserpine-pretreated rats, read-out: 5-HTP ED50 Limbic) came out at 5.8 µmol/kg.

In the case of `CCCN(CCC)C1COc2c(ccc3cc[nH]c23)C1` (stereo not drawn) [Example 5, Di-n-propyl-(1,6,7,8-tetrahydro-9-oxa-1-azacyclopenta[a]naphthylenee-7-yl)amine], the “DOPA Stri. % decrease from control” value in assay [1] (highest dose 3.1 μmol/kg s.c.) amounted to 26%. Also, the “DOPA ED50 Cortex. (I/P symbol)” value in assay [2] was “I(50)”. Besides, the Ki came to 270 nM on dopamine D2 receptor (setting [8]) and 178 nM in assay [5]. Further, the “5-HTP Limbic % decrease from control” value in assay [3] (highest dose 50 μmol/kg s.c.) worked out at 62%.

With `CCCN(CCC)C1CCc2cc3[nH]ccc3cc2C1` (stereo not drawn) [Example 7, Di-n-propyl-(5,6,7,8-tetrahydro-1H-benzo[f]indol-6-yl)amine], the “DOPA Stri. % decrease from control” value in assay [1] (highest dose 50 μmol/kg s.c.) is reported as 48%. In addition, the Ki on dopamine D2 receptor (setting [8]) was 4200 nM; in assay [5], 340 nM. Moreover, the ED50 in assay [3] (setting [7]) stood at 50 µmol/kg.

Take `CCCN(CCC)C1CCc2c(ccc3[nH]ccc23)C1` (stereo not drawn) [Example 7A, Di-n-propyl-(6,7,8,9-tetrahydro-3H-benzo[e]indol-7-yl)amine, reference compound]: the figures for the ED50 in assay [1] and in assay [2] were 0.3 µmol/kg and 12.5 µmol/kg, respectively. Besides, the Ki on dopamine D2 receptor (In vitro binding Ki D2-spip.) turned out to be 50 nM; in assay [5], 500 nM. Also, the “5-HTP Limbic % decrease from control” value in assay [3] (highest dose 3.1 μmol/kg s.c.) amounted to 72%.

As for `CCCN(CCC)C1CCc2c(ccc3[nH]cc(C=O)c23)C1` (stereo not drawn) [Example 8, 7-Di-n-propylamino-6,7,8,9-tetrahydro-3H-benzo [e]indole-1-carbaldehyde], the values for the ED50 in assay [1] and in assay [3] (setting [7]) were 0.015 µmol/kg and 50 µmol/kg, respectively. In assay [2] (highest dose 0.2 μmol/kg s.c.), the “DOPA Cortex. % decrease from control” value worked out at 57%. Besides, the Ki came out at 16 nM on dopamine D2 receptor (In vitro binding Ki D2-spip.) and 2600 nM in assay [5].

As to `CCCN(CCC)C1CCc2cc3[nH]cc(C=O)c3cc2C1` (stereo not drawn) [Example 9, 6-Di-n-propylamino-5,6,7,8-tetrahydro-1H-benzo [f]indole-3-carbaldehyde], the “DOPA Stri. % decrease from control” value in assay [1] (highest dose 12.5 μmol/kg s.c.) stood at 37%. In assay [2] (highest dose 12.5 μmol/kg s.c.), the “DOPA Cortex. % decrease from control” value is recorded as 85%. In addition, the ED50 in assay [3] (setting [7]) came to 12.5 µmol/kg. For the same molecule, in assay [4] (setting [6]), the Ki worked out at 278 nM.

With `CCCN(CCC)C1CCc2c(ccc3[nH]cc(C#N)c23)C1` (stereo not drawn) [Example 10, 7-Di-n-propylamino-6,7,8,9-tetrahydro-3H-benzo[e]indole-1-carbonitrile], the ED50 is 0.004 µmol/kg in assay [1] and 3.1 µmol/kg in assay [3] (setting [7]). In assay [2] (highest dose 3.1 μmol/kg s.c.), the “DOPA Cortex. % decrease from control” value was found to be 79%. Moreover, the Ki in assay [4] came out at 10.1 nM.

In the case of `CCCN(CCC)C1CCc2c(ccc3ccoc23)C1` (stereo not drawn) [Example 17, Di-n-propyl-(6,7,8,9-tetrahydronaphtho[1,2-b]furan-7-yl)-amine], the ED50 in assay [1] is 1 µmol/kg; in assay [3] (setting [7]), 33.3 µmol/kg. Further, the “DOPA Cortex. % decrease from control” value in assay [2] (highest dose 33.3 μmol/kg s.c.) was 79%. Besides, the affinity in assay [4] corresponds to a Ki of 205 nM.

A word on the Ki: it is the equilibrium dissociation constant of an inhibitor or competing ligand from its target.

For the origin of these results see patent US5639778A, “Indoletetralins having dopaminergic activity” (Pharmacia & Upjohn Company, priority 1995, dated 1997).
